# Read-outs that look alike come from different tables or passages of the source. Square brackets hold non-standard residues; d marks the D form. Ends that are not written are not given here. Peptide text beside a SMILES is read from it.
# Tests used:
# DRB1*0301 (DR3w17) = target: T1, DRB1*0301 (DR3w17) (Homo sapiens, UniProt P01903+P01911, A100K/A102G/A103R/A169T/F55Y/I96L/K41T/L162R/M171V/P40S/Q125H/Q178H/Q39Y/R42S/S66N/T106N/T262R/W38E/Y61H); assay: Class II peptide-binding assay, DR3 (pH 4.5);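 also: unlabeled peptide competing with a radiolabeled probe peptide for binding to affinity-purified HLA-DR3, IC50 regarded as an approximation of Kd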
# T1 construct: used as sources of human HLA class II molecules; endogenous in cells; host or cells: MAT (EBV-transformed homozygous B cell line)
# Method: (§1) Class II peptide-binding assays. […] These assays were chosen as to be representative of the most common DR alleles.
# In appropriate stoichiometric conditions, the IC50 of an unlabeled test peptide to the purified DR is a reasonable approximation of the affinity of interaction (Kd). Peptides were tested in two to four completely independent experiments. […] Final detergent concentration in the incubation mixture was 0.05% Nonidet P-40. Assays were performed at pH 7.0 with the exception of DR3, which was performed at pH 4.5, and DRw53, which was performed at pH 5.0.
# (§2) All subsequent inhibition and direct binding assays were the performed using these class II concentrations.
# DRB10404 (DR4w14) = target: T2, DRB10404 (DR4w14) (Homo sapiens, UniProt P01903+P01911, A100R/A169T/F76Y/I96L/K127E/L162R/M171V/N62H/P40V/Q125Y/R42H/S133A/S149N/S66Y/V209L/W38E); assay: Class II peptide-binding assay, DR4w14;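 also: unlabeled peptides compete with a radiolabeled probe for binding to affinity-purified HLA-DR, neutral pH, class II amount titrated to bind a small fraction of label, IC50 approximates Kd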
# T2 construct: used as sources of human HLA class II molecules; endogenous in cells; host or cells: BIN40 (EBV-transformed homozygous B cell line)
# DRB1*0701 (DR7) = DRB1*0701 (DR7) (Homo sapiens, UniProt P01903+P01911, A100R/A102G/A103Q/D57E/D86V/E43K/F76Y/K127E/L162R/M171V/P40G/Q125H/Q99D/R33Q/R42Y/R54Q/S133A/S66F/T210M/V115G/Y107V/Y59L/Y89S); assay: Class II peptide-binding assay, DR7;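 also: unlabeled peptides compete with an iodinated probe peptide for binding to affinity-purified HLA-DR at neutral pH, DR amount titered to bind a small tracer fraction, IC50 approximating Kd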
# DRB5*0101 (DR2w2a) = target: T3, DRB5*0101 (DR2w2a) (Homo sapiens, UniProt P01903+Q30154); assay: Class II peptide-binding assay, DR2w2a (DR2w2B2);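 also: competitive binding assay: unlabeled peptide inhibiting binding of a radiolabeled probe peptide to purified DR molecules at pH 7.0, IC50 approximating Kd, lower means stronger binding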
# T3 construct: used as sources of human HLA class II molecules; endogenous in cells; host or cells: GM3107 (EBV-transformed homozygous B cell line)
# DRB1*1101 (DR5w11) = target: T4, DRB1*1101 (DR5w11) (Homo sapiens, UniProt P01903+P01911, A100R/A169T/A87E/I96F/K41T/L162R/M171V/P40S/Q125H/Q178H/Q39Y/Q99D/R42S/S66Y/T262R/V115G/W38E); assay: Class II peptide-binding assay, DR5w11;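 also: competition by unlabeled test peptide against iodinated probe peptide binding to affinity-purified HLA-DR, class II amount titrated beforehand, half-maximal inhibitory concentration read as approximate Kd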
# T4 construct: used as sources of human HLA class II molecules; endogenous in cells; host or cells: SWEIG (EBV-transformed homozygous B cell line)
# DRB1*0401 (DR4w4) = target: T5, DRB1*0401 (DR4w4) (Homo sapiens, UniProt P01903+P01911, A100K/A169T/F76Y/I96L/K127E/L162R/M171V/N62H/P40V/Q125Y/R42H/S133A/S149N/S66Y/V115G/V209L/W38E); assay: Class II peptide-binding assay, DR4w4;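 also: unlabeled test peptides compete with a radiolabeled probe peptide for binding to affinity-purified HLA-DR, with DR amount titrated to capture a small fraction of label, IC50 approximating Kd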
# T5 construct: used as sources of human HLA class II molecules; endogenous in cells; host or cells: PREISS (EBV-transformed homozygous B cell line)
# DRB1*0101 (DR1) = target: T6, DRB1*0101 (DR1) (Homo sapiens, UniProt P01903+P01911, A100R/D57E/F55L/F60I/F76Y/I96L/L162R/M171V/P40L/Q125E/R42F/V115G/Y59C); assay: Class II peptide-binding assay, DR1;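 also: competition assay: unlabeled test peptides inhibit binding of a radiolabeled probe peptide to purified DR, with half-maximal inhibition taken as an approximate dissociation constant Kd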
# T6 construct: used as sources of human HLA class II molecules; endogenous in cells; host or cells: LG2 (EBV-transformed homozygous B cell line)
# Method: as §1
# Radiolabeled peptides were iodinated using the chloramine-T method. […] In appropriate stoichiometric conditions, the IC50 of an unlabeled test peptide to the purified DR is a reasonable approximation of the affinity of interaction (Kd). Peptides were tested in two to four completely independent experiments. […] Final detergent concentration in the incubation mixture was 0.05% Nonidet P-40. Assays were performed at pH 7.0 with the exception of DR3, which was performed at pH 4.5, and DRw53, which was performed at pH 5.0.
# as §2
# [1] = read-out: DR3 nM, Table VIII, In IC50 Format
# [2] = read-out: DR4w14 nM, Table VIII, In IC50 Format
# [3] = read-out: DR7 nM, Table VIII, In IC50 Format
# [4] = read-out: DR2w2B2 nM, Table VIII, In IC50 Format
# [5] = read-out: DR5w11 nM, Table VIII, In IC50 Format
# [6] = read-out: DR4w4 nM, Table VIII, In IC50 Format
# [7] = read-out: DR1 nM, Table VIII, In IC50 Format
# [8] = read-out: DR3 nM (In IC50 Format), purified HLA DR3
# [9] = read-out: DR4w14 nM (In IC50 Format), purified HLA DR4w14
# [10] = read-out: DR7 nM (In IC50 Format), purified HLA DR7
# [11] = read-out: DR2w2B2 nM (In IC50 Format), purified HLA DR2w2β2
# [12] = read-out: DR5w11 nM (In IC50 Format), purified HLA DR5w11
# [13] = read-out: DR4w4 nM (In IC50 Format), purified HLA DR4w4
# [14] = read-out: DR1 nM (In IC50 Format), purified HLA DR1
# [15] = read-out: In IC50 Format DR3, Table VIII
# [16] = read-out: In IC50 Format DR4w14, Table VIII
# [17] = read-out: In IC50 Format DR7, Table VIII
# [18] = read-out: In IC50 Format DR2w2β2, Table VIII
# [19] = read-out: In IC50 Format DR5w11, Table VIII
# [20] = read-out: In IC50 Format DR4w4, Table VIII
# [21] = read-out: In IC50 Format DR1, Table VIII
# T4 sequence (P01903 26-254, other chains not shown): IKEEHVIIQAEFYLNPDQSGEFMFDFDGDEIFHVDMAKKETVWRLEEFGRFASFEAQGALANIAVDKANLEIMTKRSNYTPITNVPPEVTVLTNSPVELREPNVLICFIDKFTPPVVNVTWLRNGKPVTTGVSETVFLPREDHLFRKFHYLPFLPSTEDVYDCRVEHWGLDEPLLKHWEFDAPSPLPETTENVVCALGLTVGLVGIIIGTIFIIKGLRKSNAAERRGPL
# T1 sequence (P01903 26-254, other chains not shown): as above
Compound,IC50 (DRB1*0301 (DR3w17); [8]) [nM],IC50 (DRB10404 (DR4w14); [9]) [nM],IC50 (DRB1*0701 (DR7); [10]) [nM],IC50 (DRB5*0101 (DR2w2a); [11]) [nM],IC50 (DRB1*1101 (DR5w11); [12]) [nM],IC50 (DRB1*0401 (DR4w4); [13]) [nM],IC50 (DRB1*0101 (DR1); [14]) [nM],also measured
CC(C)C[C@H](NC(=O)[C@@H](NC(=O)[C@H](C)NC(=O)[C@H](C)NC(=O)[C@H](CCCCN)NC(=O)[C@@H](NC(=O)[C@H](Cc1ccccc1)NC(=O)[C@H](CCCCN)NC(=O)[C@@H](C)N)C(C)C)[C@@H](C)O)C(=O)N[C@@H](CCCCN)C(=O)N[C@@H](C)C(=O)N[C@@H](C)C(=O)N[C@H](C)C(N)=O [Peptide 909.02] (H-[dA]KFVKAATLKAA[dA]-NH2),–,–,–,–,–,–,–,IC50 (DRB1*0301 (DR3w17); [1]): 5660 nM; IC50 (DRB10404 (DR4w14); [2]): 33.3 nM; IC50 (DRB1*0701 (DR7); [3]): 208 nM; IC50 (DRB5*0101 (DR2w2a); [4]): 8 nM; IC50 (DRB1*1101 (DR5w11); [5]): 5.7 nM; IC50 (DRB1*0401 (DR4w4); [6]): 4.7 nM; IC50 (DRB1*0101 (DR1); [7]): 2.5 nM
CC(C)C[C@H](NC(=O)[C@@H](NC(=O)[C@H](C)NC(=O)[C@H](C)NC(=O)[C@H](C)NC(=O)[C@H](CCCCN)NC(=O)[C@H](Cc1ccccc1)NC(=O)[C@H](C)NC(=O)[C@@H](C)N)[C@@H](C)O)C(=O)N[C@@H](CCCCN)C(=O)N[C@@H](C)C(=O)N[C@@H](C)C(=O)N[C@H](C)C(N)=O [Peptide 871.08] (H-[dA]AFKAAATLKAA[dA]-NH2),–,–,–,–,–,–,–,IC50 (DRB1*0301 (DR3w17); [1]): 15000 nM; IC50 (DRB10404 (DR4w14); [2]): 10 nM; IC50 (DRB1*0701 (DR7); [3]): 111 nM; IC50 (DRB5*0101 (DR2w2a); [4]): 3.9 nM; IC50 (DRB1*1101 (DR5w11); [5]): 9 nM; IC50 (DRB1*0401 (DR4w4); [6]): 1.9 nM; IC50 (DRB1*0101 (DR1); [7]): 1.8 nM
LLVIVELIPSTSS [Peptide 778.00],60000,82.5,5000,2220,1110,28.1,67.6,–
FFKNIVTPRFFKNIVTPR [Peptide 613.03],–,–,–,–,–,–,–,IC50 (DRB1*0301 (DR3w17); [15]): 75000 nM; IC50 (DRB10404 (DR4w14); [16]): 2000 nM; IC50 (DRB1*0701 (DR7); [17]): 272 nM; IC50 (DRB5*0101 (DR2w2a); [18]): 188 nM; IC50 (DRB1*1101 (DR5w11); [19]): 1670 nM; IC50 (DRB1*0401 (DR4w4); [20]): 4500 nM; IC50 (DRB1*0101 (DR1); [21]): 200 nM
LVHSSNNFGAILSSTNVGS [Peptide 735.04],15800,12.5,961,5000,1250,11,161,–
CSCC[C@H](N)C(=O)NCC(=O)N[C@@H](CCC(N)=O)C(=O)N[C@@H](CC(N)=O)C(=O)N[C@@H](CC(C)C)C(=O)N[C@@H](CO)C(=O)N[C@H](C(=O)N[C@@H](CO)C(=O)N[C@@H](CC(N)=O)C(=O)N1CCC[C@H]1C(=O)N[C@@H](CC(C)C)C(=O)NCC(=O)N[C@@H](Cc1ccccc1)C(=O)N[C@@H](Cc1ccccc1)C(=O)N1CCC[C@H]1C(=O)N[C@@H](CC(=O)O)C(=O)N[C@@H](Cc1c[nH]cn1)C(=O)O)[C@@H](C)O [Peptide 800.01],6820,2000,154,–,2000,68.8,94.3,–
CC[C@H](C)[C@H](NC(=O)[C@@H](NC(=O)[C@@H](NC(=O)[C@H](CCC(=O)O)NC(=O)[C@H](CCCNC(=N)N)NC(=O)CN)[C@@H](C)O)C(C)C)C(=O)N[C@@H](CCC(=O)O)C(=O)N[C@@H](Cc1ccc(O)cc1)C(=O)N[C@@H](CC(C)C)C(=O)N[C@H](C(=O)N[C@@H](CO)C(=O)N[C@@H](Cc1ccccc1)C(=O)NCC(=O)N[C@H](C(=O)N[C@@H](Cc1c[nH]c2ccccc12)C(=O)O)C(C)C)C(C)C [Peptide 802.04],16700,32.3,67.6,1330,1540,833,12.8,–
CC(C)C[C@H](NC(=O)[C@@H](NC(=O)[C@H](C)NC(=O)[C@H](C)NC(=O)[C@H](CCCCN)NC(=O)[C@H](C)NC(=O)[C@H](Cc1ccccc1)NC(=O)[C@H](CCCCN)NC(=O)[C@@H](C)N)[C@@H](C)O)C(=O)N[C@@H](CCCCN)C(=O)N[C@@H](C)C(=O)N[C@@H](C)C(=O)N[C@H](C)C(N)=O [Peptide 871.01] (H-[dA]KFAKAATLKAA[dA]-NH2),–,–,–,–,–,–,–,IC50 (DRB1*0301 (DR3w17); [1]): 37500 nM; IC50 (DRB10404 (DR4w14); [2]): 9.6 nM; IC50 (DRB1*0701 (DR7); [3]): 301 nM; IC50 (DRB5*0101 (DR2w2a); [4]): 14.7 nM; IC50 (DRB1*1101 (DR5w11); [5]): 14.6 nM; IC50 (DRB1*0401 (DR4w4); [6]): 3.1 nM; IC50 (DRB1*0101 (DR1); [7]): 4.2 nM
YAAYVKLTAARKFA-NH2 [Peptide 806.03],23100,4550,4.4,0.7,1.3,21.4,2.1,–
VHHANENIFYCPIAIMSALA [Peptide 703.03],–,–,–,–,–,–,–,IC50 (DRB1*0301 (DR3w17); [15]): 42900 nM; IC50 (DRB10404 (DR4w14); [16]): 333 nM; IC50 (DRB1*0701 (DR7); [17]): > 6250 nM; IC50 (DRB5*0101 (DR2w2a); [18]): > 10000 nM; IC50 (DRB1*1101 (DR5w11); [19]): 1110 nM; IC50 (DRB1*0401 (DR4w4); [20]): 63.3 nM; IC50 (DRB1*0101 (DR1); [21]): 147 nM
CSCC[C@H](NC(=O)[C@H](CC(C)C)NC(=O)[C@H](CCC(=O)O)NC(=O)CNC(=O)[C@H](Cc1c[nH]c2ccccc12)NC(=O)[C@@H](N)CS)C(=O)N[C@H](C(=O)N[C@@H](CC(C)C)C(=O)N[C@@H](C)C(=O)N[C@H](C(=O)N[C@@H](Cc1c[nH]c2ccccc12)C(=O)N[C@H](C(=O)NCC(=O)N[C@H](C(=O)N[C@@H](CC(N)=O)C(=O)N[C@@H](CC(C)C)C(=O)N[C@@H](CCC(=O)O)C(=O)N[C@@H](CC(=O)O)C(=O)O)C(C)C)C(C)C)[C@@H](C)O)[C@@H](C)O [Peptide 802.02],100000,90.7,6250,–,5000,738,357,–
CC[C@H](C)[C@H](NC(=O)[C@H](CCCNC(=N)N)NC(=O)[C@H](CO)NC(=O)[C@H](Cc1ccccc1)NC(=O)[C@@H](NC(=O)[C@H](CO)NC(=O)[C@H](CO)NC(=O)[C@H](CC(C)C)NC(=O)[C@@H]1CCCN1C(=O)[C@H](CO)NC(=O)[C@H](C)NC(=O)[C@@H](NC(=O)[C@@H](NC(=O)[C@H](CC(C)C)NC(=O)[C@@H](NC(=O)[C@@H]1CCCN1C(=O)[C@@H](N)CC(N)=O)C(C)C)[C@@H](C)O)[C@@H](C)O)[C@@H](C)CC)C(=O)O [Peptide 801.02],300000,6.5,63.1,20000,–,54.1,714,–
YAEFQAEKTLKAAS-NH2 [Peptide 717.05],4000,29.4,–,339,48.8,6.4,8.2,–
